From patent US10202408B2, “Prodrugs and methods of use thereof” (Health Innovation Ventures B.V., priority 2012, dated 2019)
“Also recorded” adds a separate entry of the source.

How the values were obtained:
[1] = tested on: HCT116 cells engineered to over-express E coli NfsA; test: Low cell density IC50 (SRB) assay, HCT116 wild type versus E coli NfsA over-expressing cells; type: cell-based, human
Method: (§1) Compounds were subjected to testing, including low-cell density cytotoxicity assay. Cells (500 cells/well) were seeded in 96-well plates and exposed to prodrug for 4 h, washed, then left to grow for a further 5 days. The SRB assay was employed to determine IC50 values (concentration of prodrug required to inhibit proliferation by 50%). Parental HCT116 cells (HCT116 is a cell line derived from human colon cancer) and cells expressing the example nitroreductase gene nfsA from Escherichia coli were evaluated head-to-head. Parental H1299 cells (H1299 is a cell line derived from lung cancer) and cells expressing the example nitroreductase gene nfsA from Escherichia coli were evaluated head-to-head. Parental HCT116 cells and cells expressing human AKR1C3 were evaluated head-to-head. Parental H1299 cells and cells expressing human AKR1C3 were evaluated head-to-head. In a variation of these assays test compounds were assessed for their ability to give hypoxia-selective cell killing. Here wild type HCT116, H460 (H460 is a cell line derived from lung cancer), H1299 and SiHa cells (SiHa is a cell line derived from cervical cancer) were used in addition to HCT116 cells engineered to over express cytochrome P450 reductase (HCT116 POR), a human one-electron nitroreductase. Low-cell density cytotoxicity assays were performed as above under oxic conditions and compared to experiments where cells were shown 4 h of anoxia during the prodrug exposure period, before being washed free of prodrug and then left to grow for a further 5 days under oxic conditions, as above.

[2] = tested on: H1299 cells engineered to over-express E coli NfsA; test: Low cell density IC50 (SRB) assay, H1299 wild type versus E coli NfsA over-expressing cells; type: cell-based, human
Method: as §1

[3] = tested on: HCT116 MCLs over-expressing AKR1C3; test: Multicellular layer (MCL) clonogenic assay, HCT116 wild type versus AKR1C3 over-expressing MCLs; type: cell-based, human
Method: (§2) In parallel, a three dimensional high-cell density multi-cellular layer (MCL) clonogenic assay was performed. 1×10^6 cells of either 100% HCT-116^WT or containing 97% WT with a minor 3% HCT-116^NTR cell population were seeded into a collagen-coated Teflon microporous membrane and left to grow for 3 days. MCLs were then exposed to prodrug for 5 h. After treatment, MCLs were enzyme dissociated, diluted in fresh medium and plated to determine clonogenic survival. To discriminate clonogenic activator (NTR+) from target (NTR−) colonies, cells were plated in non-selective medium (total cells) and medium containing 1 μM puromycin (activator cells). Colonies were grown for 10 days before staining. Colonies containing >50 cells were counted. A variation of this assay was also used to assess for evidence of AKR1C3-dependent cytotoxicity. Here either 100% HCT-116W^T or 100% HCT-116^AKR1C3 cells were seeded to provide MCLs that were then exposed to prodrug.

[4] = tested on: HCT116 cells engineered to over-express human aldo-ketoreductase 1C3 (AKR1C3); test: Low cell density IC50 (SRB) assay, HCT116 wild type versus AKR1C3 over-expressing cells; type: cell-based; conditions: 4 h exposure
Method: as §1

[5] = tested on: 15% E coli NfsA-expressing H1299 xenografts; test: Tumour growth delay, 15% E coli NfsA-expressing H1299 xenografts; type: in vivo, NIH-III mice
Method: Animals weighed 18-25 g at the time of tumour inoculation. Tumours were grown subcutaneously on the right flank of mice by inoculating cells grown in tissue culture (1×10^7 cells in 100 uL serum free α-MEM). Tumour sizes were monitored three times weekly using electronic callipers and treatments were initiated once tumour diameter reached ≥7 mm.
Tumour bearing mice were randomised into the appropriate treatment groups and tumour size and body weight recorded. Test compounds were formulated on the day of the experiment and kept in foil-wrapped tubes out of direct fluorescent light. If recruitment of animals occurred over multiple days, the drug stocks were aliquoted into tubes and frozen once at […] until required. Mice were treated with a single (or BID) dose of prodrug by intraperitoneal injection and thereafter tumour size and body weight was monitored every second day. Tumour volume was calculated as π (l×w×w)/6, where l is the major axis and w is the perpendicular minor axis. Animals were culled when they had reached the appropriate survival endpoint or when body weight loss exceeded 20% of the pre-treatment value.

[6] = tested on: wild type SiHa tumour xenografts; test: Excision assay with and without radiation, wild type SiHa tumour xenografts; type: in vivo, NIH-III nude mice
Method: Tumours were grown subcutaneously in the flank of NIH-III mice by inoculating cells grown in tissue culture. Tumours were monitored using electronic calipers. When tumours reached treatment size, mice were randomized to treatment groups (five to seven per group). Compounds were given as single (or BID) intraperitoneal doses alone or 5 min after whole body irradiation (^60Co source). Eighteen hours after treatment, tumours were excised, weighed, minced, dissociated enzymatically, and plated to determine clonogenicity. Clonogens/gram of tissue were calculated relative to controls and effects of treatment were tested for significance (ANOVA with Dunnett's).

[7] = tested on: HCT116 MCLs with 3% E coli NfsA-expressing cells; test: MCL clonogenic bystander assay, HCT116 MCLs seeded with 3% E coli NfsA-expressing cells; type: cell-based, human; conditions: 97% wild type HCT116, 3% E coli NfsA-expressing cells
Method: as §2

[8] = tested on: H1299 cells engineered to over-express human aldo-ketoreductase 1C3 (AKR1C3); test: Low cell density IC50 (SRB) assay, H1299 wild type versus AKR1C3 over-expressing cells; type: cell-based; conditions: 4 h exposure
Method: as §1

[9] = tested on: bacterial nitroreductases from the NfsA and NfsB families; test: GFP SOS assay with nitroreductase over-expression library; type: cell-based, E. coli strain SOS-R4; conditions: 55 candidate nitroreductase library, 6 h challenge
Excerpt: The method employed the over-expression of a candidate nitroreductase gene from plasmid pUCX in an SOS reporter strain, as first described in Prosser et al., 2010, Biochem Pharmacol 79, 678-687. In order to enhance the sensitivity of the SOS reporter system, an sfiA::GFP reporter construct was integrated into a CDF-based plasmid (which contains a compatible origin of replication with pUCX) to give the pANODuet reporter plasmid for GFP screening. In addition, nfsA, nfsB, azoR, and nemA genes were deleted to minimise background metabolism, and the tolC gene deleted to minimise efflux of test compounds; this strain was designated SOS-R3. Further improvements were obtained by deleting the mdaB, ycaK, and yieF genes to minimise background metabolism, and by introducing transcriptional terminators to the pANODUET reporter plasmid. This final reporter strain was designated SOS-R4.
Stored glycerols of the 55-membered nitroreductase library in SOS-R4 were thawed and used to inoculate overnight cultures (Lysogeny Broth (LB) amended with 100 μg ml^−1 Ampicillin, 50 μg ml^−1 Spectinomycin, 0.4% glucose) that were incubated at 30° C., 200 rpm for 16 h. The next morning the GFP-SOS assay was commenced by inoculation of 195 μl fresh assay media (LB+100 μg ml^−1 Ampicillin, 50 μg ml^−1 Spectinomycin, 0.2% glucose, 50 μM IPTG) with 15 μl of overnight culture in individual wells of a 96-well plate. Plates were incubated at 30° C., 200 rpm for 2.5 h (pre-challenge period), following which cultures were diluted 1:2 by splitting 50:50 into fresh assay media (+DMSO to 0.5% final concentration) and fresh challenge media (assay media+drug to desired concentration, DMSO to 0.5% final concentration) to final volumes of 80 μl apiece in duplicate on a 384-well plate. Plates were incubated at 30° C., 200 rpm for 6 h (challenge period). GFP expression was determined at excitation 488 nm/emission 509 nm. Turbidity was determined by OD600 and fluorescence data from any replicates not found to be within 15% of the median culture turbidity were discarded.

[10] = tested on: bacterial nitroreductases from the NfsA and NfsB families; test: as above; type: cell-based, E. coli strain SOS-R4; conditions: single and poly mutated variants of NfsA_Ec, single-mutated variant of NfsA_Bs

Row | Compound | E coli NfsA-mediated cytotoxicity (IC50 wild type versus NfsA) [1] | E coli NfsA-mediated cytotoxicity (IC50 wild type versus NfsA) [2] | AKR1C3-dependent clonogenic cell kill in MCLs [3] | AKR1C3-mediated cytotoxicity (IC50 wild type versus AKR1C3) [4] | further results
1 | CS(=O)(=O)OCCN(CCBr)c1c(C(=O)NCCO)cc([N+](=O)[O-])cc1[N+](=O)[O-] [PR-104A, 2-((2-bromoethyl)(2-((2-hydroxyethyl)carbamoyl)-4,6-dinitrophenyl)amino)ethyl methanesulfonate, reference compound] | produce E coli NfsA-mediated cytotoxicity | produce E coli NfsA-mediated cytotoxicity |  |  | 
2 | CCN(CCO)C(=O)c1cc([N+](=O)[O-])cc([N+](=O)[O-])c1N(CCBr)CCBr [compound 7, reference compound] |  |  | capable of producing AKR1C3-dependent cell ablation |  | 
3 | CC(C)N(CCO)C(=O)c1cc([N+](=O)[O-])cc([N+](=O)[O-])c1N(CCBr)CCBr [compound 8, reference compound] |  |  |  | appear negative for AKR1C3 dependent cell sensitivity | 
4 | CCCN(CCO)C(=O)c1cc([N+](=O)[O-])cc([N+](=O)[O-])c1N(CCBr)CCBr [compound 9, reference compound] |  |  | capable of producing AKR1C3-dependent cell ablation | appears to be AKR1C3-negative; also recorded: appear negative for AKR1C3 dependent cell sensitivity | 
5 | CCS(=O)(=O)c1cc([N+](=O)[O-])c(C(=O)N(C)CCOP(=O)(O)O)cc1N(CCBr)CCBr [compound 11, 2-(5-(bis(2-bromoethyl)amino)-4-(ethylsulfonyl)-N-methyl-2-nitrobenzamido)ethyl dihydrogen phosphate] |  |  |  |  | tumour growth delay ([5]; mixed HCT116 and H1299 xenografts, 15% E coli NfsA cells, single (or BID) intraperitoneal dose): profound tumour growth delay; E coli NfsA mediated anti-tumour efficacy (mean tumour volume) ([5]; single dose, 10, 22, 60 and 11 at 750, 422, 1330 and 1330 umol/kg): display significant E coli NfsA mediated anti-tumour efficacy; cell killing in combination with radiation versus radiation alone ([6]; HCT116 POR and wild type SiHa xenografts, 10 or 15Gy, single (or BID) intraperitoneal dose): increased cell killing above what could be achieved with radiation alone; hypoxic cell kill in vivo (log cell kill) ([6]; with or without 10Gy radiation, 22 at 422, 300 and 11 at 1330, 23 at 1000 umol/kg): significant hypoxic cell kill in vivo
6 | CC(C)N1CCN(C(=O)c2cc(N(CCBr)CCBr)c(S(C)(=O)=O)cc2[N+](=O)[O-])CC1 [compound 24, (5-(bis(2-bromoethyl)amino)-4-(methylsulfonyl)-2-nitrophenyl)(4-isopropylpiperazin-1-yl)methanone] | produce E coli NfsA-mediated cytotoxicity | produce E coli NfsA-mediated cytotoxicity | do not cause AKR1C3-dependant cytotoxicity | less susceptible to AKR1C3-mediated cytotoxicity than PR-104A | bystander cell killing in MCLs [7]: display evidence of metabolism by the 3% E coli NfsA-expressing cells with bystander cell killing of the 97% non-expressing neighbour cells; AKR1C3-mediated cytotoxicity (IC50 wild type versus AKR1C3) [8]: less susceptible to AKR1C3-mediated cytotoxicity than PR-104A; metabolism by bacterial nitroreductases (SOS response) [9]: substrates for multiple wild type and mutant bacterial nitroreductases from the NfsA and NfsB families; activity with mutated nitroreductase variants [10]: demonstrated
7 | CS(=O)(=O)OCCN(CCBr)c1ccc([N+](=O)[O-])cc1C(=O)NCCO [compound 64, 2-((2-bromoethyl)(2-((2-hydroxyethyl)carbamoyl)-4-nitrophenyl)amino)ethyl methanesulfonate] | produce E coli NfsA-mediated cytotoxicity | produce E coli NfsA-mediated cytotoxicity | do not cause AKR1C3-dependant cytotoxicity | less susceptible to AKR1C3-mediated cytotoxicity than PR-104A | bystander cell killing in MCLs [7]: display evidence of metabolism by the 3% E coli NfsA-expressing cells with bystander cell killing of the 97% non-expressing neighbour cells; metabolism by bacterial nitroreductases (SOS response) [9]: substrates for multiple wild type and mutant bacterial nitroreductases from the NfsA and NfsB families; activity with mutated nitroreductase variants [10]: demonstrated
